42 compounds from US10167300B2, “Metalloenzyme inhibitor compounds as fungicides” (priority 2014, dated 2019) can be followed below.

Read-outs that look alike come from different tables or passages of the source. Where only a bound is given, the exact number is not on record here.

For assay [1], the system named is Mycosphaerella graminicola; Anamorph: Septoria tritici; Bayer Code SEPTTR (standard laboratory isolate, SI SEPTTR). Briefly: Type A (high volume) assay, leaf blotch of wheat, standard laboratory SEPTTR isolate (SI SEPTTR). Type of assay: in vivo, Mycosphaerella graminicola on wheat plants (variety Yuma). The conditions noted are these: standard laboratory isolate, high volume, 50 ppm, wheat (Yuma); for pest or weed control at 50 ppm: Zymoseptoria tritici. The procedure: Example A: Evaluation of Fungicidal Activity: Leaf Blotch of Wheat (Mycosphaerella graminicola; Anamorph: Septoria tritici; Bayer Code SEPTTR)
For Type A assays, technical grades of the experimental fungicides in Table 4 below were dissolved in acetone, and then mixed with nine volumes of water containing 110 ppm Triton X-100. The fungicide solutions were applied onto wheat seedlings using an automated booth sprayer. For Type B assays, emulsifiable concentrate (EC) formulations of technical grades of the experimental fungicides in Table 4 below were prepared at 10% (w/v), and then mixed with 150 volumes of 0.1% Trycol 5941. These solutions were applied onto wheat seedlings using an automated track sprayer at 200 L/ha. All sprayed plants were allowed to air dry prior to further handling.
Wheat plants (variety Yuma) were grown from seed in a greenhouse in 50% mineral soil/50% soil-less Metro mix until the first leaf was fully emerged, with 7-10 seedlings per pot. Prior to or after application of experimental fungicides, plants were inoculated either with spores of a standard laboratory SEPTTR isolate (SI SEPTTR) or with spores from a SEPTTR field isolate collected from Wellsbourne, England in 2012 (FI SEPTTR). After inoculation the plants were kept for 3 days at 20° C. in 100% relative humidity (one day in a dark dew chamber followed by two days in a lighted dew chamber). Plants were then transferred to a 20° C. greenhouse for disease development. When disease symptoms were fully expressed on untreated plants, infection levels on treated plants were assessed on a scale of 0 to 100 percent disease severity. Percent disease control was calculated using the ratio of disease severity on treated plants relative to untreated plants.

A short description of assay [2]: Type B (low volume, EC formulation, track sprayer 200 L/ha) assay, leaf blotch of wheat, SEPTTR field isolate (FI SEPTTR). Type of assay: in vivo, Mycosphaerella graminicola on wheat plants (variety Yuma). The conditions noted are these: Zymoseptoria tritici, 72 h, field isolate, low volume EC, 100 g/ha, wheat (Yuma). Put shortly:
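Wheat seedlings (Yuma, first leaf emerged) sprayed with acetone/Triton X-100 solutions (Type A) or 10% EC diluted in 0.1% Trycol at 200 L/ha (Type B), inoculated before or after spraying. Inoculated plants held 3 days at 20 °C, 100% RH, then greenhouse; % disease control from severity versus untreated plants.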

[3] abbreviates: 24 h, 1 Day Protectant, read-out: Disease Control, SI SEPTTR Type A Assay (50 ppm) 1 DP.
Setting [4] is: 3 Day Curative, read-out: Disease Control, FI SEPTTR Type B Assay (100 g/ha) 3 DC.
Where [5] appears, read: 3 Day Protectant, read-out: Disease Control, FI SEPTTR Type B Assay (100 g/ha) 3 DP.
[6] abbreviates: 72 h, 3 Day Curative, read-out: Disease Control, SI SEPTTR Type A Assay (50 ppm) 3 DC.

As for `COc1ccc(-c2ccc(C(O)(c3cncnc3)C(C)(C)C)nc2)c(OC(F)(F)F)c1` (stereo not shown) [Compound 163], the pest or weed control at 50 ppm in assay [1] (setting [3]) lay within 80 to 100%. Moreover, the pest or weed control at 100 g/ha in assay [2] (setting [4]) and in assay [2] (setting [5]) was 80 to 100% each time.

Regarding `CC(C)(C)C(O)(c1cncnc1)c1ccc(-c2ccc(OC(F)(F)F)cn2)cn1` (stereo not shown) [Compound 150], the pest or weed control at 50 ppm in assay [1] (setting [3]) is 80 to 100%. Besides, the pest or weed control at 100 g/ha in assay [2] (setting [4]) and in assay [2] (setting [5]) was 80 to 100% throughout.

Take `CC(O)(c1cncnc1)c1ccc(-c2ccc(OC(F)(F)F)cc2)cn1` (stereo not shown) [Compound 99]: the pest or weed control at 50 ppm in assay [1] (setting [3]) fell in the range of 80 to 100%. In addition, the pest or weed control at 100 g/ha in assay [2] (setting [4]) was below 40%; in assay [2] (setting [5]), 40 to 59%.

For `CC(F)(F)c1ccc(-c2ccc(C(O)(c3cncnc3)C(C)(C)C)nc2)cc1` (stereo not shown) [Compound 155], the pest or weed control at 50 ppm in assay [1] (setting [3]) was in the range of 80 to 100%. Also, the pest or weed control at 100 g/ha in assay [2] (setting [4]) and in assay [2] (setting [5]) was 60 to 79% in each case.

Consider `Cc1ccc(Oc2ccc(C(O)(c3cncnc3)C(C)C)nc2)nc1` (stereo not shown) [Compound 53], for which the pest or weed control at 50 ppm in assay [1] (setting [3]) was 40 to 59%; in assay [1] (setting [6]), below 40%.

As for `N#Cc1ccc(Oc2ccc(C(O)(Cn3cnnn3)C3CC3)nc2)cc1` (stereo not shown) [Compound 19, 4-((6-(1-cyclopropyl-1-hydroxy-2-(1H-tetrazol-1-yl)ethyl)pyridin-3-yl)oxy)benzonitrile], the pest or weed control at 50 ppm in assay [1] (setting [3]) is below 40%; in assay [1] (setting [6]) it was 40 to 59%.

`OC(Cc1ccc(Cl)cc1F)(Cn1cnnn1)c1ccc(Oc2ccc(Cl)cc2)cn1` (stereo not shown) [Compound 42, 1-(4-chloro-2-fluorophenyl)-2-(5-(4-chlorophenoxy)-pyridin-2-yl)-3-(1H-tetrazol-1-yl)propan-2-ol]: the pest or weed control at 50 ppm in assay [1] (setting [3]) and in assay [1] (setting [6]) was 80 to 100% throughout.

`OC(CCc1ccc(Cl)cc1)(Cn1cnnn1)c1ccc(Oc2ccc(C(F)(F)F)cn2)cn1` (stereo not shown) [Compound 15]: the pest or weed control at 50 ppm in assay [1] (setting [3]) was 60 to 79%; in assay [1] (setting [6]) it was 40 to 59%.

For `CC(C)(C)C(O)(c1cncnc1)c1ccc(-c2ccc3c(c2)CCCO3)cn1` (stereo not shown) [Compound 137], the pest or weed control at 50 ppm in assay [1] (setting [3]) is 80 to 100%.

With `CCC(C)(C)C(O)(c1cccnc1)c1ccc(-c2ccc(OC(F)(F)F)cc2)cn1` (stereo not shown) [Compound 154], the pest or weed control at 50 ppm in assay [1] (setting [3]) lay within 80 to 100%.

On to `CC(C)(C)C(O)(c1cncnc1)c1ccc(Oc2ccc(Cl)cc2)cn1` (stereo not shown) [Compound 44], for which the pest or weed control at 50 ppm in assay [1] (setting [3]) and in assay [1] (setting [6]) was below 40% each time.

As for `OC(c1cncnc1)(c1ccc(Oc2ccc(C(F)(F)F)cn2)cn1)C1CC1` (stereo not shown) [Compound 67], in assay [1] (setting [3]), the pest or weed control at 50 ppm was below 40%.

Turning to `OC(CCc1ccc(F)cc1F)(Cn1cnnn1)c1ccc(Oc2ccc(C(F)(F)F)cn2)cn1` (stereo not shown) [Compound 5], the pest or weed control at 50 ppm in assay [1] (setting [3]) was below 40%; in assay [1] (setting [6]), 40 to 59%.

On to `CCC(O)(c1cncnc1)c1ccc(Oc2ccc(Cl)cn2)cn1` (stereo not shown) [Compound 54], for which the pest or weed control at 50 ppm in assay [1] (setting [3]) is below 40%; in assay [1] (setting [6]), 40 to 59%.

As for `OC(Cc1ccc(F)cc1F)(c1cncnc1)c1ccc(-c2ccc(OC(F)(F)F)cc2)cn1` (stereo not shown) [Compound 138], in assay [1] (setting [3]), the pest or weed control at 50 ppm is 80 to 100%.

As to `OC(Cc1cncnc1)(c1ccc(-c2ccc(Cl)cc2)cn1)C1CCCC1` (stereo not shown) [Compound 56], the pest or weed control at 50 ppm in assay [1] (setting [3]) and in assay [1] (setting [6]) was 80 to 100% each time.

Take `CC(C)(C)C(O)(c1cncnc1)c1ccc(-c2ccoc2)cn1` (stereo not shown) [Compound 123]: the pest or weed control at 50 ppm in assay [1] (setting [3]) lay within 60 to 79%.

In the case of `CC(C)(C)C#CC(O)(c1cncnc1)c1ccc(Oc2ccc(OC(F)(F)F)cc2)cn1` (stereo not shown) [Compound 31], the values for the pest or weed control at 50 ppm in assay [1] (setting [3]) and in assay [1] (setting [6]) were below 40% and 60 to 79%, respectively.

On to `CC(C)C(O)(c1cncnc1)c1ccc(Oc2ccc(C(F)(F)F)cc2)cn1` (stereo not shown) [Compound 75], for which, in assay [1] (1 Day Protectant), the “Disease Control, SI SEPTTR Type A Assay (50 ppm) 1 DP” value was “A (80-100)”.

As for `OC(Cc1cccc(F)c1)(c1cncnc1)c1ccc(-c2ccc(OC(F)(F)F)cc2)cn1` (stereo not shown) [Compound 139, 2-(3-fluorophenyl)-1-pyrimidin-5-yl-1-[5-[4-(trifluoromethoxy)-phenyl]-2-pyridyl]ethanol], the pest or weed control at 50 ppm in assay [1] (setting [3]) was 80 to 100%.

Take `OC(Cc1cncnc1)(c1ccc(-c2ccc(Cl)cc2)cn1)C1CCCCC1` (stereo not shown) [Compound 52]: the pest or weed control at 50 ppm in assay [1] (setting [3]) and in assay [1] (setting [6]) was 60 to 79% in each case.

Consider `CC(C)C(O)(Cn1cnnn1)c1ccc(-c2ccc(OC(F)(F)F)cc2)cn1` (stereo not shown) [Compound 61], for which the pest or weed control at 50 ppm in assay [1] (setting [3]) fell in the range of 40 to 59%; in assay [1] (setting [6]), 60 to 79%.

As to `COc1ncncc1C(O)(c1ccc(-c2ccc(C(C)(C)C#N)cc2C)cn1)C(C)(C)C` (stereo not shown) [Compound 129, 2-(4-(6-(1-hydroxy-1-(4-methoxypyrimidin-5-yl)-2,2-dimethylpropyl)pyridin-3-yl)-3-methylphenyl)-2-methylpropanenitrile], in assay [1] (setting [3]), the pest or weed control at 50 ppm was in the range of 60 to 79%.

For `OC(Cc1cccc(Cl)c1)(c1cncnc1)c1ccc(-c2ccc(OC(F)(F)F)cc2)cn1` (stereo not shown) [Compound 141], in assay [1] (setting [3]), the pest or weed control at 50 ppm lay within 60 to 79%.

With `CC(C)(C)C(O)(Cc1cncnc1)c1ccc(-c2ccc(OC(F)F)cc2)cn1` (stereo not shown) [Compound 68], in assay [1] (setting [3]), the pest or weed control at 50 ppm was in the range of 80 to 100%.

Turning to `CC(C)C(O)(Cn1cnnn1)c1ccc(-c2ccc(OCC(F)(F)F)nc2)cn1` (stereo not shown) [Compound 62], the pest or weed control at 50 ppm in assay [1] (setting [3]) and in assay [1] (setting [6]) was 40 to 59% in each case.

Regarding `CC(C)C(O)(c1ccc(-c2ccc(OC(F)F)cc2)cn1)c1cncs1` (stereo not shown) [Compound 85], the pest or weed control at 50 ppm in assay [1] (setting [3]) was in the range of 80 to 100%.

`CC(C)(C)C(O)(Cn1cnnn1)c1ccc(-c2ccc(OC(F)(F)F)cc2)cn1` (stereo not shown) [Compound 26, 3,3-dimethyl-1-(1H-tetrazol-1-yl)-2-[5-[4-(trifluoro-methoxy)phenyl]pyridine-2-yl]butan-2-ol]: the results for the pest or weed control at 50 ppm in assay [1] (setting [3]) and in assay [1] (setting [6]) were below 40% and 40 to 59%, respectively.

Consider `OC(CCc1ccc(Cl)cc1F)(Cn1cnnn1)c1ccc(Oc2ccc(Cl)cn2)cn1` (stereo not shown) [Compound 4], for which the pest or weed control at 50 ppm in assay [1] (setting [3]) is 60 to 79%; in assay [1] (setting [6]), below 40%.

Take `C=CCCC(O)(c1cncnc1)c1ccc(Oc2ccc(OC(F)(F)F)cc2)cn1` (stereo not shown) [Compound 22]: the pest or weed control at 50 ppm in assay [1] (setting [3]) and in assay [1] (setting [6]) was 80 to 100% throughout.

Regarding `CC(C)(C)C(O)(Cn1cnnn1)c1ccc(Oc2ccc(Cl)cc2)cn1` (stereo not shown) [Compound 43], the pest or weed control at 50 ppm in assay [1] (setting [3]) was 60 to 79%; in assay [1] (setting [6]) it was 80 to 100%.

With `OC(Cc1ccc(Cl)cc1)(c1cncnc1)c1ccc(-c2ccc(OC(F)(F)F)cc2)cn1` (stereo not shown) [Compound 140], in assay [1] (setting [3]), the pest or weed control at 50 ppm fell in the range of 80 to 100%.

With `OC(c1ccc(-c2ccc(OC(F)(F)F)cc2)cn1)(c1cncs1)c1ccc(F)cc1F` (stereo not shown) [Compound 94], the pest or weed control at 50 ppm in assay [1] (setting [3]) was in the range of 60 to 79%.

Take `CC(C)C(O)(c1cccnc1)c1ccc(Oc2ccc(Cl)cn2)cn1` (stereo not shown) [Compound 77]: the pest or weed control at 50 ppm in assay [1] (setting [3]) lay in the range of 80 to 100%.

As for `OC(c1cccnc1)(c1ccc(Oc2ccc(Cl)cn2)cn1)C1CC1` (stereo not shown) [Compound 79], in assay [1] (setting [3]), the pest or weed control at 50 ppm lay in the range of 80 to 100%.

`OC(c1cncnc1)(c1ccc(Oc2ccc(Cl)nc2)cn1)C1CC1` (stereo not shown) [Compound 11]: the pest or weed control at 50 ppm in assay [1] (setting [3]) and in assay [1] (setting [6]) was 40 to 59% throughout.

On to `OC(c1cncnc1)(c1ccc(Oc2ccc(Cl)cc2)cn1)C1CC1` (stereo not shown) [Compound 7], for which the pest or weed control at 50 ppm in assay [1] (setting [3]) and in assay [1] (setting [6]) was 80 to 100% each time.

For the compound `C=Cc1ccc(-c2ccc(C(O)(c3cncnc3)C(C)(C)C)nc2)cc1` (stereo not shown) [Compound 109], the pest or weed control at 50 ppm in assay [1] (setting [3]) is 60 to 79%.

For the compound `N#Cc1ccc(Oc2ccc(C(O)(CC3CC3)Cn3cnnn3)nc2)cc1` (stereo not shown) [Compound 23], the pest or weed control at 50 ppm was below 40% in assay [1] (setting [3]) and 60 to 79% in assay [1] (setting [6]).

Take `CC(C)(C)C(O)(c1cncnc1)c1ccc(-c2cccnc2)cn1` (stereo not shown) [Compound 126]: the pest or weed control at 50 ppm in assay [1] (setting [3]) is 60 to 79%.

Take `OC(c1cncnc1)(c1ccc(Oc2cccc(Cl)n2)cn1)C1CC1` (stereo not shown) [Compound 72]: the pest or weed control at 50 ppm in assay [1] (setting [3]) is below 40%.

In the case of `N#Cc1ccc(Oc2ccc(C(O)(c3cncnc3)C3CC3)nc2)cc1` (stereo not shown) [Compound 18], the pest or weed control at 50 ppm in assay [1] (setting [3]) and in assay [1] (setting [6]) was below 40% each time.
